This note sets out measurements from patent publication US7381433B1, “Compositions containing an extract of a primula denticulata and use thereof” (Johnson & Johnson Consumer Companies, Inc., priority 2007, dated 2008).

In this assay the test system is sebocytes. Put plainly: In vitro sebocyte lipogenesis assay (Nile red lipid accumulation). The class given is cell-based, human.

On to `CCCCCC1=CC(=O)C=C(OC)C1=O` [Primin, 2-methoxy-6-pentyl-1,4-benzoquinone], for which the Induction of lipogenesis stood at 17.9% (Primin concentration 0.3 μg/mL), 21.3% (Primin concentration 1.0 μg/mL) and 41.5% (Primin concentration 3.0 μg/mL). In addition, the “Effect on lipogenesis in sebocytes (in words)” value (summary of Tables 1 and 2) is on record as “has lipogenic activity”.
